In one assay the target is cathepsin L. The settings on record: read-out: Ki for cathepsin L; calpastatin peptide; ref [32]−[35]; cited from earlier work.
In assay [1] the target is calpain. The conditions noted are these: cited from earlier work; for Ki: read-out: Ki for calpain; for IC50: read-out: IC50, calpain inhibitor.
The target of assay [2] is T1, recombinant human calpain-1 (Homo sapiens, UniProt P07384).
T1 sequence (P07384 1-714): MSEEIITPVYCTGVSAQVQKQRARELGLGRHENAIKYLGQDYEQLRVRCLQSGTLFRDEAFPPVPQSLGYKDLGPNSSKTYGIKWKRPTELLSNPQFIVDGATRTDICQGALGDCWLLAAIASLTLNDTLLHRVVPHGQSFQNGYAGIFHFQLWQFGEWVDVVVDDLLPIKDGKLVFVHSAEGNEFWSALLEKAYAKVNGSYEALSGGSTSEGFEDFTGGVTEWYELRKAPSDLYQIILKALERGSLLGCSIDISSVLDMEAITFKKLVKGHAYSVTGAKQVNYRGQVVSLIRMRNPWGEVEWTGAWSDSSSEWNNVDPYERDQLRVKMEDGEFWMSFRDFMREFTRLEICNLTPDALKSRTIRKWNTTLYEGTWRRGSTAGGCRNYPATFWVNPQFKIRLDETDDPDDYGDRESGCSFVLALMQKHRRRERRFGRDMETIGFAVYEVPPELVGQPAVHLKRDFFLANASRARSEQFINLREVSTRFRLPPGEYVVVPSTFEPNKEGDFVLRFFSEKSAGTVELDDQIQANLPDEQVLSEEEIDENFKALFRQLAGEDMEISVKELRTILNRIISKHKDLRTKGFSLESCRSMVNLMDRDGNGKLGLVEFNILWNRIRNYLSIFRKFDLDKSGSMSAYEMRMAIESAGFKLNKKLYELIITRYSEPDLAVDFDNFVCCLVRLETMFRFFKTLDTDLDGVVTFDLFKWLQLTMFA
T1 sequence (P04632 1-268 partner): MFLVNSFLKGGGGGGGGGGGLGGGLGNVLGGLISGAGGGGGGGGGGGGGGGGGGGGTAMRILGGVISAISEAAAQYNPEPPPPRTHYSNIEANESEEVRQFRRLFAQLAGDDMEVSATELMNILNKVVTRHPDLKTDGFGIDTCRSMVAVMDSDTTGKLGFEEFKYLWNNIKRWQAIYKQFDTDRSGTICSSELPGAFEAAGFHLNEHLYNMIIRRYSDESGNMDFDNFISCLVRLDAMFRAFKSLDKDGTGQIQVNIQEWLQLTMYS
The assay is described as follows: CS activation of PEG conjugates by recombinant human calpain-1. Type of assay: biochemical. The conditions noted are these: 37C, 1 h.

The test system of assay [3] is calpain. The assay can be described thus: Activated CS signal in injured cortex and hippocampus, CCI mouse model. The conditions noted are these: mouse model of TBI, systemic administration.
Assay [4] has as its system calpain activity in the hippocampus. The assay is described as follows: Activated CS in hippocampal regions. The settings on record: dentate gyrus, CA1, CA2, CA3; 1 h after injury; n = 10 mice, unpaired t-test.
The next assay deals with calpain-1. The conditions noted are these: read-out: Ki for calpain-1; calpain inhibitor II; ref [13],[24]; cited from earlier work.
Another assay has as its target calpain-2. The settings on record: read-out: Ki for calpain-2; calpain inhibitor II; ref [13],[24]; cited from earlier work.
The target of another assay is cathepsin B. The settings on record: read-out: Ki for cathepsin B; calpain inhibitor II; ref [13],[24]; cited from earlier work.
Assay [5] deals with neurofilament and spectrin proteolysis in the cortex. The settings on record: continuous intra-arterial infusion after TBI; ref [13],[24]; cited from earlier work.
Assay [6] relates to neuronal and hippocampal culture models of injury. The settings on record: ref [16]−[19]; cited from earlier work.
The target of assay [7] is T1, recombinant human calpain-1. The assay can be described thus: Inhibition of calpain-1 cleavage of CS FRET peptide by titrated CAST/ScrCAST. It counts as biochemical. The settings on record: up to 1 μM; 8 μM CS substrate; 26.6 nM recombinant human calpain-1; 37C.
A further assay concerns TBI. The settings on record: large multicenter clinical trials in TBI; ref [4],[5]; cited from earlier work.

Where two headings read alike, the source gives them in different places. Square brackets hold non-standard residues; d marks the D form. Peptide text beside a SMILES is read from it. * marks the point of attachment. 5FAM = O=C1OC2(c3ccc(O)cc3Oc3cc(O)ccc32)c2ccc(C(=O)*)cc21; Nle = CCCC[C@H](N)C(=O)O; Cbz = O=C(OCc1ccccc1)*

For the molecule `CC[C@H](C)[C@H](NC(=O)[C@H](Cc1ccc(O)cc1)NC(=O)[C@@H](NC(=O)[C@H](CO)NC(=O)[C@H](CO)NC(=O)[C@H](CCSC)NC(=O)[C@@H]1CCCN1C(=O)[C@@H](N)CC(=O)O)[C@@H](C)O)C(=O)N[C@@H](CCC(=O)O)C(=O)N[C@@H](CCC(=O)O)C(=O)N[C@@H](CC(C)C)C(=O)NCC(=O)N[C@@H](CCCCN)C(=O)N[C@@H](CCCNC(=N)N)C(=O)N[C@@H](CCC(=O)O)C(=O)N[C@H](C(=O)N[C@H](C(=O)N[C@H](C(=O)N1CCC[C@H]1C(=O)N1CCC[C@H]1C(=O)N[C@@H](CCCCN)C(=O)N[C@@H](Cc1ccc(O)cc1)C(=O)N[C@@H](CCCNC(=N)N)C(=O)N[C@@H](CCC(=O)O)C(=O)N[C@@H](CC(C)C)C(=O)N[C@@H](CC(C)C)C(=O)N[C@@H](C)C(=O)N[C@@H](CCCCNC(=O)c1ccc2c(c1)C(=O)OC21c2ccc(O)cc2Oc2cc(O)ccc21)C(=O)N[C@@H](CS)C(N)=O)[C@@H](C)CC)[C@@H](C)O)C(C)C` [CAST] (H-DPMSSTYIEELGKREVTIPPKYRELLAK(5FAM)C-NH2; N-terminus assumed), the inhibition constant Ki on cathepsin L was 6000 nM; on calpain [1] (calpastatin peptide, ref [32]−[35]), 42.6 nM.
Turning to “CAST–PEG–CS: 40 kDa 8-arm PEG scaffold modified with CAST and CS peptide (activity-based nanotheranostic) (chain 1 DPMSSTYIEELGKREVTIPPKYRELLAKC; chain 2 QEVYGAMPKGC; not fully specified; 5FAM on the added lysine; C-terminal amide; cysteine joined to the 8-arm PEG by maleimide chemistry | QSY21 on the N-terminus; Cy5 on the lysine; PEG2 spacer between K(Cy5) and GC; c)”, the “inhibition of calpain-1 at increased enzyme concentration” value in assay [2] (calpain-1 up to 6U (∼380 nM), 8 μM CS) was “able to inhibit activity and cleavage of the CS substrate compared to ScrCAST–PEG–CS”. The “CS activation by calpain-1” value in [2] (conjugates matched to 8 μM CS, 26.6 nM recombinant human calpain-1, Cy5 fluorescence) is on record as “no measured activation of CS peptide”. Further, the “inhibition of calpain activity, cortical vs hippocampal neurons” value in the assay on calpain [3] was “greater ABNT-mediated inhibition of calpain activity in cortical neurons compared to that in hippocampal neurons”. In addition, the “sensor activation in hippocampal regions” value in assay [4] was “inhibits activation of CS in the injured hippocampus”.
For the molecule `CSCC[C@@H](C=O)NC(=O)[C@H](CC(C)C)NC(=O)[C@H](CC(C)C)NC(C)=O` [calpain inhibitor II] (Ac-Leu-Leu-Met-aldehyde), the Ki at calpain-1 is 120 nM; on calpain-2, 230 nM; at cathepsin B, 100 nM. Moreover, the “neurofilament and spectrin proteolysis in the cortex” value in assay [5] is “required continuous intra-arterial infusion after TBI to significantly reduce neurofilament and spectrin proteolysis in the cortex”. Further, in assay [6], the “cell apoptosis, actin and spectrin proteolysis, DNA fragmentation” value was “reduce cell apoptosis, suppress actin and spectrin proteolysis, and inhibit DNA fragmentation”.
Regarding `CCCC[C@@H](C=O)NC(=O)[C@H](CC(C)C)NC(=O)[C@H](CC(C)C)NC(C)=O` [calpain inhibitor I] (Ac-Leu-Leu-[Nle]-aldehyde), the concentration for half-maximal inhibition (IC50) in the assay with calpain [1] (calpain inhibitor I, ref [63]) is 90 nM.
As to `CC(C)[C@H](NC(=O)OCc1ccccc1)C(=O)N[C@H](C=O)Cc1ccccc1` [MDL-28170] (Cbz-Val-Phe-aldehyde), the IC50 in the assay with calpain [1] (MDL-28170, ref [64]) was 11 nM. In addition, at calpain [1] (MDL-28170, ref [20],[28]), the Ki was 10 nM.
Turning to “APRLEIVPTMYIYKLSPTGSEKLEDER-K(5FAM)-C-NH2 [ScrCAST]”, the “detectable inhibitory activity on calpain-1” value in [7] is “does not have any detectable inhibitory activity up to 1 μM”.
As to `CC(=O)[C@H]1CC[C@H]2[C@@H]3CCC4=CC(=O)CC[C@]4(C)[C@H]3CC[C@]12C` [progesterone], in the assay on TBI, the “efficacy as acute stage neuroprotective treatment” value is “failed to establish efficacy as an acute stage neuroprotective treatment”.

Usually Ki stands for the dissociation constant of the complex between target and ligand, obtained from inhibition or displacement. A word on the IC50: it is the point on the concentration scale where inhibition reaches its midpoint.
